Test results reported in ChEMBL document CHEMBL5291721, “A preclinical secondary pharmacology resource illuminates target-adverse drug reaction associations of marketed drugs” (Nat Commun, 2023).

What was measured:
[1] = target: Prothrombin (Homo sapiens, UniProt P00734); assay type: functional
[2] = target: T1, Amine oxidase [flavin-containing] A (Homo sapiens, UniProt P21397); assay type: functional
T1 sequence (P21397 whole entry): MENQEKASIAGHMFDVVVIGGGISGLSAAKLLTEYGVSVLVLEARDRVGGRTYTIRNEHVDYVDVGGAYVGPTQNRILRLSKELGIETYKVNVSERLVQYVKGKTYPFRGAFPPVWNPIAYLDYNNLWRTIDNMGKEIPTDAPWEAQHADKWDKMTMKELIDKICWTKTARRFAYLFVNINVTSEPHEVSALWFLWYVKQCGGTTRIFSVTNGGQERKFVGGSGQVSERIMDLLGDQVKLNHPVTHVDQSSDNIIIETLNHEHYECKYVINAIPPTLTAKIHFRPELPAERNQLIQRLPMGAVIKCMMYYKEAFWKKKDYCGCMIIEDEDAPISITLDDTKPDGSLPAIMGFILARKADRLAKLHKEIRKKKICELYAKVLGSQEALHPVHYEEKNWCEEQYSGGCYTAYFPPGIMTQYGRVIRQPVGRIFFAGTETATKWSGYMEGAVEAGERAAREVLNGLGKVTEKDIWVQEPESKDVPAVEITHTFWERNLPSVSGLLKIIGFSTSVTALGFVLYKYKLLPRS

[3] = target: D(1A) dopamine receptor (Homo sapiens, UniProt P21728)
Chain of D(1A) dopamine receptor (P21728 whole entry): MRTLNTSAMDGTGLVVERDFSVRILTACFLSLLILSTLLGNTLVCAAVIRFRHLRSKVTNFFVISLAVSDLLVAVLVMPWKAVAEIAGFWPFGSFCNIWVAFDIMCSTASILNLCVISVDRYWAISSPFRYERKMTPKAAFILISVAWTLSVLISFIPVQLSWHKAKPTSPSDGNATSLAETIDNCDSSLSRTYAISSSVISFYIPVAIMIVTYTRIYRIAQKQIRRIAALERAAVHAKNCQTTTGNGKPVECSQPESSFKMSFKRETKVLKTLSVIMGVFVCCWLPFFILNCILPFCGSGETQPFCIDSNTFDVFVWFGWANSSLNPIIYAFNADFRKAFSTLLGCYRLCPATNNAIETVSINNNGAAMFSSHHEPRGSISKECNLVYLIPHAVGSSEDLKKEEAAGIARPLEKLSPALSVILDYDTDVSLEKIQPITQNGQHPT

[4] = target: Sodium-dependent dopamine transporter (Homo sapiens, UniProt Q01959)
Chain of Sodium-dependent dopamine transporter (Q01959 whole entry): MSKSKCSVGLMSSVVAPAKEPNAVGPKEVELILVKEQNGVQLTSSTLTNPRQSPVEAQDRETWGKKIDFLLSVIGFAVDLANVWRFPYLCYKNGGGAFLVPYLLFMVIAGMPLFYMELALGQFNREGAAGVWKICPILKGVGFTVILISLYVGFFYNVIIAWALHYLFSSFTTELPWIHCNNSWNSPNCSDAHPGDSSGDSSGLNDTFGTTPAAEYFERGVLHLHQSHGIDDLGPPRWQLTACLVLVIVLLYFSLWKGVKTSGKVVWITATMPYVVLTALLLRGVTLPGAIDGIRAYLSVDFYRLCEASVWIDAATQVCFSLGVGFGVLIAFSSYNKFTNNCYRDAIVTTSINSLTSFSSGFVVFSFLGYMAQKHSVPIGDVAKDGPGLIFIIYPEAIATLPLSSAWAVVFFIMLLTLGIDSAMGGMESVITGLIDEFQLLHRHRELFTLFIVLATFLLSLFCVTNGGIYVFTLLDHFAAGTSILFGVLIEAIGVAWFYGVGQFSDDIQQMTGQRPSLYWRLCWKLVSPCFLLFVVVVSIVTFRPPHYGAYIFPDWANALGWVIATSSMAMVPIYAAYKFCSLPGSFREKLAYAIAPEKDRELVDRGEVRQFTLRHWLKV

[5] = target: T2, Alpha-1A adrenergic receptor (Homo sapiens, UniProt P35348); assay type: functional, cell-based
T2 sequence (P35348 whole entry): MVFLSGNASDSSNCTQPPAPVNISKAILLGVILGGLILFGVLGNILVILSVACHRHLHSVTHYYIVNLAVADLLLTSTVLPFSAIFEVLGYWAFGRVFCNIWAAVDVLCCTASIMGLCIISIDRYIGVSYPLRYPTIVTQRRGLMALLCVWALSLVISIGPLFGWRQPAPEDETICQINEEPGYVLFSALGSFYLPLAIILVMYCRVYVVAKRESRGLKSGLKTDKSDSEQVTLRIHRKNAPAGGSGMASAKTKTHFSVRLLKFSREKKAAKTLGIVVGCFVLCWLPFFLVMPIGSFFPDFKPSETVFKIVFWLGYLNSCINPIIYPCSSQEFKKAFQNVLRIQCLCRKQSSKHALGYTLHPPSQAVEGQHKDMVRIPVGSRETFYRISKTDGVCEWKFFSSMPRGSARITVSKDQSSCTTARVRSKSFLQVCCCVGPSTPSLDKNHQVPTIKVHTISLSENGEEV

[6] = target: T3, Progesterone receptor (Homo sapiens, UniProt P06401)
T3 sequence (P06401 whole entry): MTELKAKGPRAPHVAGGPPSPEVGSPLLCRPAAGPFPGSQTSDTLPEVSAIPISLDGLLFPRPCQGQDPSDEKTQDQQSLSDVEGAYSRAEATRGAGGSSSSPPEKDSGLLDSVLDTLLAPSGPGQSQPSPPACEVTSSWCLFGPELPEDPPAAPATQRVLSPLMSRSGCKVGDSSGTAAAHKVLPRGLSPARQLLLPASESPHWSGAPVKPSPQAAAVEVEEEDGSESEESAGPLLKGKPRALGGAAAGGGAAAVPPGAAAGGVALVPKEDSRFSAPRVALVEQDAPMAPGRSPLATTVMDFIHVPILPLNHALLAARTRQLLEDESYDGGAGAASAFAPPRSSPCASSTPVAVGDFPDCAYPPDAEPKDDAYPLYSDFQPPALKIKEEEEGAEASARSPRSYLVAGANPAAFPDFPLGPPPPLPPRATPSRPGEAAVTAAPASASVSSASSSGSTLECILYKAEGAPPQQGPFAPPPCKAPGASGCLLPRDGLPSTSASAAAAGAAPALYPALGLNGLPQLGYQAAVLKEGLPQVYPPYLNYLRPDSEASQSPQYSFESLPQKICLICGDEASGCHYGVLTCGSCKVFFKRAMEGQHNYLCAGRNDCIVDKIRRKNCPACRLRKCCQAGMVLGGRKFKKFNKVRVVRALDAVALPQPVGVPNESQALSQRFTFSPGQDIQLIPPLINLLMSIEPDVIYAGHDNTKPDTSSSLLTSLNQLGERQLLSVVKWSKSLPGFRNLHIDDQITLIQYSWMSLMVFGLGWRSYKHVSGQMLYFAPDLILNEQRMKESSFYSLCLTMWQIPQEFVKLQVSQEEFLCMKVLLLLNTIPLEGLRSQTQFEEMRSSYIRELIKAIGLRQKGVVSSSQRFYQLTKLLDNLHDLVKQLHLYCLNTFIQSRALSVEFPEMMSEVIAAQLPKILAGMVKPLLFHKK

[7] = target: T4, Estrogen receptor (Homo sapiens, UniProt P03372)
T4 sequence (P03372 whole entry): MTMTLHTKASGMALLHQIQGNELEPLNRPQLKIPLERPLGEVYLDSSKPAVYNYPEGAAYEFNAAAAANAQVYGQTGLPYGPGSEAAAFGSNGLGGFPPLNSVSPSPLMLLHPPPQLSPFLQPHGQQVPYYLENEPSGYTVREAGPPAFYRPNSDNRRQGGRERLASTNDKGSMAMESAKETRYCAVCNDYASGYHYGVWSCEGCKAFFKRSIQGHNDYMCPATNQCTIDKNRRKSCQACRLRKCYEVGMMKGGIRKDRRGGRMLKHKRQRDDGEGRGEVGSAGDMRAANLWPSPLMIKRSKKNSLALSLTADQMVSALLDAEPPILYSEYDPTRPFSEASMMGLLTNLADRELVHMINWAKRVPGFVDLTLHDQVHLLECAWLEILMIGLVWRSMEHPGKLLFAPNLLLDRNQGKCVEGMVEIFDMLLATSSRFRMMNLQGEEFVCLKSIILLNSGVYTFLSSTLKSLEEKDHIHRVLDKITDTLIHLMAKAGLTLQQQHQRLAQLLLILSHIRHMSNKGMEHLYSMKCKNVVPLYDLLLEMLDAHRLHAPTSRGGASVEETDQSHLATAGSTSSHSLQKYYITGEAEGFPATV
Further: assay procedure not described here.

N[C@H]1C(O)O[C@H](CO)[C@@H](O)[C@@H]1O (some centres undefined) [GLUCOSAMINE]
AC50 [1]: > 30 µM
AC50 [2]: > 30 µM
AC50 [3]: > 30 µM
AC50 [4]: > 30 µM
AC50 [5]: > 30 µM
AC50 [6]: > 30 µM
AC50 [7]: > 30 µM

CC(C)(C)C(=O)C(Oc1ccc(Cl)cc1)n1ccnc1 (centres undefined) [CLIMBAZOLE]
AC50 [1]: > 30 µM
AC50 [2]: > 30 µM
AC50 [3]: > 30 µM
AC50 [4]: 0.0662 µM
AC50 [5]: > 30 µM
AC50 [6]: > 30 µM
AC50 [7]: > 30 µM

CC(=O)[C@@]1(O)CC[C@H]2[C@@H]3C=C(C)C4=CC(=O)CC[C@]4(C)[C@H]3CC[C@@]21C
AC50 [1]: > 30 µM
AC50 [2]: > 30 µM
AC50 [3]: > 30 µM
AC50 [4]: > 30 µM
AC50 [5]: > 30 µM
AC50 [6]: 0.285 µM
AC50 [7]: > 30 µM

CC(C)C[C@H]1C(=O)N2CCC[C@H]2[C@]2(O)O[C@](NC(=O)[C@@H]3C[C@@H]4c5cccc6[nH]cc(c56)C[C@H]4N(C)C3)(C(C)C)C(=O)N12 [DIHYDROERGOCRYPTINE]
AC50 [1]: > 30 µM
AC50 [2]: > 30 µM
AC50 [3]: 0.597 µM
AC50 [4]: > 30 µM
AC50 [5]: 5.77 µM
AC50 [6]: > 30 µM
AC50 [7]: > 30 µM

CC(=O)Oc1c(C)c(C)c2c(c1C)CC[C@@](C)(CCC[C@H](C)CCC[C@H](C)CCCC(C)C)O2
AC50 [1]: > 30 µM
AC50 [2]: > 30 µM
AC50 [3]: > 30 µM
AC50 [4]: > 30 µM
AC50 [5]: > 30 µM
AC50 [6]: > 30 µM
AC50 [7]: > 30 µM

CCOC(=O)/C=C1\SC(N2CCCCC2)C(=O)N1C (centres undefined) [ETOZOLIN]
AC50 [1]: > 30 µM
AC50 [2]: > 30 µM
AC50 [3]: > 30 µM
AC50 [4]: > 30 µM
AC50 [5]: > 30 µM
AC50 [6]: > 30 µM
AC50 [7]: > 30 µM

O=C(Oc1ccc2c(c1)CCCN2C(=O)C(Cl)Cl)c1ccco1 [QUINFAMIDE]
AC50 [1]: > 30 µM
AC50 [2]: > 30 µM
AC50 [3]: > 30 µM
AC50 [4]: > 30 µM
AC50 [5]: > 30 µM
AC50 [6]: > 30 µM
AC50 [7]: 20.3 µM

CCC(CC)(CC(=O)Nc1cccc(/C=C/c2nc(C3CCC3)cs2)c1)C(=O)O
AC50 [1]: > 30 µM
AC50 [2]: > 30 µM
AC50 [3]: > 30 µM
AC50 [4]: > 30 µM
AC50 [5]: > 10 µM
AC50 [6]: > 30 µM
AC50 [7]: > 30 µM

O=[N+]([O-])O[C@@H]1CO[C@H]2[C@@H]1OC[C@@H]2O [ISOSORBIDE MONONITRATE]
AC50 [1]: > 30 µM
AC50 [2]: > 30 µM
AC50 [3]: > 30 µM
AC50 [4]: > 30 µM
AC50 [5]: > 30 µM
AC50 [6]: > 30 µM
AC50 [7]: > 30 µM

Cc1cc(NS(=O)(=O)c2ccc(N)cc2)nc(C)n1 [SULFISOMIDINE]
AC50 [1]: > 30 µM
AC50 [2]: > 30 µM
AC50 [3]: > 30 µM
AC50 [4]: > 30 µM
AC50 [5]: > 30 µM
AC50 [6]: > 30 µM
AC50 [7]: > 30 µM

O=c1[nH]c(=O)n([C@H]2C[C@H](O)[C@@H](CO)O2)cc1F [FLOXURIDINE]
AC50 [1]: > 30 µM
AC50 [2]: > 30 µM
AC50 [3]: > 30 µM
AC50 [4]: > 30 µM
AC50 [5]: > 30 µM
AC50 [6]: > 30 µM
AC50 [7]: > 30 µM

CCOc1ccccc1C(N)=O [ETHENZAMIDE]
AC50 [1]: > 30 µM
AC50 [2]: > 30 µM
AC50 [3]: > 30 µM
AC50 [4]: > 30 µM
AC50 [5]: > 30 µM
AC50 [6]: > 30 µM
AC50 [7]: > 30 µM

CCCNC(C)C(=O)Nc1c(C)csc1C(=O)OC (centres undefined) [ARTICAINE]
AC50 [1]: > 30 µM
AC50 [2]: > 30 µM
AC50 [3]: > 30 µM
AC50 [4]: > 30 µM
AC50 [5]: > 30 µM
AC50 [6]: > 30 µM
AC50 [7]: > 30 µM

O=[N+]([O-])c1cn2c(n1)OC[C@@H](OCc1ccc(OC(F)(F)F)cc1)C2 [PRETOMANID]
AC50 [1]: > 30 µM
AC50 [2]: > 30 µM
AC50 [3]: > 30 µM
AC50 [4]: > 30 µM
AC50 [5]: > 10 µM
AC50 [6]: > 30 µM
AC50 [7]: > 30 µM

CC(C)COC(=O)OCN1C(=O)CN(CCN2CC(=O)N(COC(=O)OCC(C)C)C(=O)C2)CC1=O [SOBUZOXANE]
AC50 [1]: > 30 µM
AC50 [2]: > 30 µM
AC50 [3]: > 30 µM
AC50 [4]: > 30 µM
AC50 [5]: > 30 µM
AC50 [6]: > 30 µM
AC50 [7]: > 30 µM

N=c1ccn2c(n1)O[C@H]1[C@H](O)[C@@H](CO)O[C@H]12 [ANCITABINE]
AC50 [1]: > 30 µM
AC50 [2]: > 30 µM
AC50 [3]: > 30 µM
AC50 [4]: > 30 µM
AC50 [5]: > 30 µM
AC50 [6]: > 30 µM
AC50 [7]: > 30 µM

COC1=C(OC)C(=O)C(C/C=C(\C)CC/C=C(\C)CC/C=C(\C)CC/C=C(\C)CC/C=C(\C)CC/C=C(\C)CC/C=C(\C)CC/C=C(\C)CC/C=C(\C)CCC=C(C)C)=C(C)C1=O [UBIDECARENONE]
AC50 [1]: > 30 µM
AC50 [2]: > 30 µM
AC50 [3]: > 30 µM
AC50 [4]: > 30 µM
AC50 [5]: > 30 µM
AC50 [6]: > 30 µM
AC50 [7]: > 30 µM

OC(c1ccccc1)(c1ccccc1)C12CC[N+](CCOCc3ccccc3)(CC1)CC2
AC50 [1]: > 30 µM
AC50 [2]: > 30 µM
AC50 [3]: > 30 µM
AC50 [4]: 0.898 µM
AC50 [5]: > 30 µM
AC50 [6]: > 30 µM
AC50 [7]: > 30 µM

OC(CCN1CCCCC1)(c1ccccc1)c1ccccc1 [PRIDINOL]
AC50 [1]: > 30 µM
AC50 [2]: > 30 µM
AC50 [3]: > 30 µM
AC50 [4]: > 30 µM
AC50 [5]: > 30 µM
AC50 [6]: > 30 µM
AC50 [7]: > 30 µM

CC[C@H]1CN2CC[C@H]1C[C@H]2[C@H](O)c1ccnc2ccc(OC)cc12 [HYDROQUININE]
AC50 [1]: > 30 µM
AC50 [2]: > 30 µM
AC50 [3]: > 30 µM
AC50 [4]: 29.1 µM
AC50 [5]: > 30 µM
AC50 [6]: > 30 µM
AC50 [7]: > 30 µM

CC(=O)c1ccc2c(c1)N(CCCN(C)C)c1ccccc1S2 [ACEPROMAZINE]
AC50 [1]: > 30 µM
AC50 [2]: > 30 µM
AC50 [3]: 0.0259 µM
AC50 [4]: 19.5 µM
AC50 [5]: > 30 µM
AC50 [6]: > 30 µM
AC50 [7]: > 30 µM

Clc1cc(Cl)c(OCC#CI)cc1Cl [HALOPROGIN]
AC50 [1]: > 30 µM
AC50 [2]: > 30 µM
AC50 [4]: 6.43 µM
AC50 [5]: > 30 µM
AC50 [6]: > 30 µM
AC50 [7]: > 30 µM

NNc1nnc(NN)c2ccccc12 [DIHYDRALAZINE]
AC50 [1]: > 30 µM
AC50 [2]: 26.4 µM
AC50 [3]: > 30 µM
AC50 [4]: > 30 µM
AC50 [5]: > 30 µM
AC50 [7]: > 30 µM
